These results are taken from patent US5902794A (priority 1997, dated 1999).

Usually inhibition stands for the share of the control response that was lost under treatment.

Experiment [1] relates to MCF-7 ras breast cancer cell line. Briefly: synergistic growth inhibition by C-6 and C-8 analogue combination. In kind it is cell-based. The conditions noted are these: Homo sapiens, MCF7, alone, read-out: percentage growth inhibition of analogue added alone. The protocol:
(§1) All breast cancer cell lines were grown in IMEM supplemented with 10% fetal bovine serum, 20 mM HEPES, penicillin-streptomycin, and extra glutamine. Colon carcinoma cell lines were grown in EMEM supplemented with 10% FBS, EMEM, NEAA, HEPES 20 mM, extra glutamine, and penicillin-streptomycin. The cells were grown at 37° C. in humidified incubators in an atmosphere of 5% CO2.
(§2) For cell growth experiments, 2-3×10^5 cells/60 mm dish were seeded, and 24 hours later (Day 0), the medium was removed, and fresh medium and the additives were added then and every 48 hours thereafter The compounds of the present invention were added using 100× concentrated stock solutions. At desired times, cell counts in duplicate were performed on a Coulter counter after harvesting the cells with gentle trypsinization.
Synergism quotient was defined as the net growth inhibitory effect of the analogue combination divided by the sum of the net analogue effects on growth inhibition A quotient of >1 indicates a synergistic effect, while a quotient of <1 indicates an antagonistic effect.
Synergism of growth inhibition was determined by treatment of
cells with C-6 analogues and C-8 analogues alone and in combination at
Day 0 and Day 2 and counting the cell number at Day 4

Experiment [2] concerns breast and colon cancer cells. As to the kind of experiment: effect on cell morphology. Format: cell-based, human. The text has this:
The photographs were taken on Day 4, ×160.
Furthermore, the synergistic growth inhibitory effect of C-6 and C-8 analogue combinations was also reflected in the change in the cell morphology.

Experiment [3] deals with leukemic cell lines (HL-60, K-562, myc-K562, Molt-4). As to the kind of experiment: growth inhibition and viability of leukemic cell lines. As to conditions: for growth inhibitory effect: alone; for enhancement of the analog effect: in combination with the analogue. Format: cell-based, human.
Experiment [4] has as its system hormone-independent breast and colon cancer cell lines. As to the kind of experiment: growth inhibition of hormone-independent breast and colon cancer lines. As to conditions: for growth inhibitory effect: alone; for enhancement of the effect of the site-selective compounds: in combination with the site-selective compounds. Format: cell-based, human. The protocol:
as §1, §2

For experiment [5], the system named is cultured human fibroblasts. The conditions noted are these: cited from earlier work.
For the next experiment, the system named is R^II. The conditions noted are these: cited from earlier work.
Another experiment relates to R^I receptor. As to conditions: cited from earlier work.
For another experiment, the system named is YAC lymphoma cell. The conditions noted are these: mouse, in vivo; cited from earlier work.
Experiment [6] has as its system hormone-dependent breast cancer lines. As to conditions: millimolar concentrations; previously reported; cited from earlier work.
Experiment [7] deals with breast (MCF-7) and (LS-174T) colon cancer cell lines. Briefly: growth inhibition of breast (MCF-7) and colon (LS-174T) cancer cell lines. Format: cell-based, human. The conditions noted are these: 50 micromolar.
For experiment [8], the system named is breast and colon cancer cell lines. Briefly: cell cycle progression of breast and colon cancer cell lines. The conditions noted are these: vs untreated control cells. In kind it is cell-based, human. How it is done:
DNA histograms were generated on FACS II by using the DNA intercalating dye propidium iodide as described by Braylan et al. (Cytometry 2: 337-343, 1982). The percentage of cells in each cycle phase was calculated by using a PDP-11/34 computer and software as described by Neckers et al. (Mol. Cell. Biol. 6: 4244-4250, 1986).
A determination was made whether the reduced cell proliferation observed in the cancer cell lines after treatment with the compounds of the present invention is due to a specific block in one phase of the cell cycle.

Experiment [9] deals with R^I cAMP receptor protein (MDA-MB-231). As to the kind of experiment: photoaffinity labelling of R^I cAMP receptor protein, MDA-MB-231. In kind it is cell-based, human. As to conditions: 10 microM, 3 days; control 1.0. How it is done:
(§3) M is marker proteins of known molecular weight.
(§4) The incubations were carried out at 23° C. for 60 minutes in 96-well immunoplates. The reaction mixtures were then irradiated for 30 seconds at 254 nm, placing a Mineralite UVS-11 hand lamp directly onto the plate. The samples were mixed with 25 microliters of 3× sample buffer (3% SDS, 15% beta-mercaptoethanol, 30 mM Tris, 30% glycerol, 1% bromophenol blue saturated solution), boiled for 3 minutes, and centrifuged at 700×g for five minutes. The samples containing 50-100 micrograms of protein were subjected to 0.05% SDS-12% PAGE. The gels were fixed, dried, and exposed to X-ray films overnight. The protein concentrations were determined by the method of Lowry et al., (J. Biol. Chem. 193: 265-275, 1951) with bovine serum albumin as standard.
(§5) The levels of the receptor proteins are expressed relative to the R^I level in the untreated control cells of MDA-MB-231 and LS-174T, which are each set equal to 1.0 O.D.; the scale was expanded to differentiate the lower intensity bands.

Experiment [10] concerns R^II cAMP receptor protein (MDA-MB-231). Briefly: photoaffinity labelling of R^II cAMP receptor protein, MDA-MB-231. In kind it is cell-based, human. As to conditions: 10 microM, 3 days; relative to control R^I. How it is done:
as §3, §4, §5

The test system of experiment [11] is R^I cAMP receptor protein (LS-174T). As to the kind of experiment: photoaffinity labelling of R^I cAMP receptor protein, LS-174T. Format: cell-based, human. As to conditions: 10 microM, 3 days; control 1.0. How it is done:
as §3, §4, §5

The test system of experiment [12] is R^II cAMP receptor protein (LS-174T). As to the kind of experiment: photoaffinity labelling of R^II cAMP receptor protein, LS-174T. Format: cell-based, human. The conditions noted are these: 10 microM, 3 days; relative to control R^I. The protocol:
as §3, §4, §5

Another experiment concerns MDA-MB-231. As to the kind of experiment: growth of MDA-MB-231 cells. In kind it is cell-based. As to conditions: Homo sapiens, MDA-MB-231, 72 h; 10 microM, 3 days. How it is done: as §3, §1, §2
Another experiment has as its system LS-174T. As to the kind of experiment: growth of LS-174T cells. Format: cell-based. The conditions noted are these: Homo sapiens, LS174T, 72 h; 10 microM, 3 days. How it is done: as §3, §1, §2
For experiment [13], the system named is R^I and R^II cAMP receptor proteins in breast (MDA-MB-231) and colon (LS-174T) cancer cells. As to the kind of experiment: R^I and R^II cAMP receptor protein levels in breast and colon cancer lines (FIG. 6). Format: cell-based, human. The protocol:
as §3, §4

The test system of experiment [14] is disseminated neuroblastomas. As to conditions: in a combined drug regimen; cited from earlier work.
The subject of another experiment is cells. Briefly: growth inhibition by 8-Cl-AMP. Format: cell-based. As to conditions: as high as 100 microM.

Where two headings read alike, the source gives them in different places.

Take `CSc1nc2c(N)ncnc2n1[C@@H]1O[C@@H]2COP(=O)(O)O[C@H]2[C@H]1O` [8-methylthio-cAMP]: the inhibition at 1 µM in experiment [1] turned out to be 15%. For the same molecule, the morphological change entry in [2] (100 microM, three to four days) was “induced the morphological change”. The “potency relative to 8-Cl-cAMP, times less potent” value (“potency relative to 8-Cl-cAMP” for short) in [3] was in the range of 5 to 20 times.

As for `CC(C)Cn1c(=O)n(C)c(=O)c2[nH]cnc21` [1-methyl-3-isobutylxanthine], the growth inhibitory effect result in [4] (0.5 mM) and in experiment [3] (0.5 mmol/L) was “little or no growth inhibitory effect” each time. The “enhancement of the effect of the site-selective compounds” value in [4] is reported as “could not enhance the effect”. Further, the “enhancement of the analog effect” value in [3] was “could not enhance the analog effect”. In addition, the values for the DNA synthesis entry in experiment [5] (added during first eight hours after serum addition) and in [5] (added more than eight hours after serum addition) were “subsequent DNA synthesis was not delayed” and “inhibitory”, respectively.

`CNc1nc2c(N)ncnc2n1[C@@H]1O[C@@H]2COP(=O)(O)O[C@H]2[C@H]1O` [8-methylamino-cAMP]: the inhibition at 1 µM in experiment [1] was 10%. Moreover, in experiment [3], the “potency relative to 8-Cl-cAMP” value was in the range of 5 to 20 times.

`O=C(Nc1ncnc2c1ncn2[C@@H]1O[C@@H]2COP(=O)(O)O[C@H]2[C@H]1O)c1ccccc1` [N^6 -benzoyl-cAMP]: in [1], the inhibition at 0.5 µM was 10%.

Take `Nc1ncnc2c1nc(Br)n2[C@@H]1O[C@@H]2COP(=O)(O)O[C@H]2[C@H]1O` [8-bromo-cAMP]: the “potency relative to 8-Cl-cAMP” value in [3] is recorded as 5 to 20 times.

Consider `Nc1ncnc2c1nc(N1CCCCC1)n2[C@@H]1O[C@@H]2COP(=O)(O)O[C@H]2[C@H]1O` [8-piperidino-cAMP, reference compound], for which the “site selectivity of binding, R^II” value in the experiment on R^II is recorded as “selectively binds to site 1”. The “site selectivity of binding, R^I” value with R^I receptor is “binds to site 2”.

Regarding cholera toxin, the “inhibition of YAC lymphoma cell proliferation” value in the experiment on YAC lymphoma cell is recorded as “almost complete inhibition”.

For `Cn1c(=O)c2[nH]cnc2n(C)c1=O` [theophylline], the growth inhibitory effect entry in experiment [4] (0.1 mM) and in experiment [3] (0.1 mmol/L) was “little or no growth inhibitory effect” in each case. Also, in experiment [4], the “enhancement of the effect of the site-selective compounds” value is listed as “could not enhance the effect”. Moreover, the “enhancement of the analog effect” value in [3] is “could not enhance the analog effect”.

`CCCC(=O)Nc1ncnc2c1ncn2[C@@H]1O[C@@H]2COP(=O)(O)O[C@H]2[C@H]1O` [N^6 -butyryl cAMP]: the “growth inhibition, hormone-dependent breast cancer lines” value in experiment [6] was “growth inhibition only in the hormone-dependent breast cancer lines”.

Take `O=P1(O)OC[C@H]2O[C@@H](n3c(Sc4ccc(Cl)cc4)nc4c(Nc5ccccc5)ncnc43)[C@H](O)[C@@H]2O1` [N^6-phenyl-8-p-chlorophenylthio-cAMP]: the “growth inhibition, in words” value in experiment [7] was “most potent growth inhibition among the C-6,-8 disubstituted analogues”.

Take `O=P1(O)OC[C@H]2O[C@@H](n3cnc4c(NCc5ccccc5)ncnc43)[C@H](O)[C@@H]2O1` [N^6 -benzyl-cAMP]: the inhibition at 0.5 µM in experiment [1] is 15%. Moreover, the morphological change entry in experiment [2] (0.5 microM alone, four days) is “did not induce a change in the cell morphology”; in experiment [2] (50 microM, three to four days) it was “induced the morphological change”. Moreover, in experiment [8], the “fractions of cells in G1, S and G2/M phases, in words” value is reported as “not appreciably different”. The “R^I relative level” value is recorded as 0.25 ± 0.03 in experiment [9] and 0.20 ± 0.02 in [11]. The “R^II relative level” value was 0.07 ± 0.01 in [10] and 0.25 ± 0.02 in [12]. The values for the activity at 10 µM with MDA-MB-231 and with LS-174T were 55% and 35%, respectively. Also, in [13] (densitometry), the “increase in the ratio of R^II to R^I” value is on record as “two- to three-fold increase”. In experiment [13] (three days, 10 microM), the “48,000 R^I receptor protein, in words” value was “concomitant decrease”. Besides, the “52,000 MW (R^II) receptor protein, in words” value in [13] (three days, 10 microM) is on record as “increased appreciably”.

In the case of `COc1ccc(Cc2nccc3cc(OC)c(OC)cc23)cc1OC` [papaverine], the clinical result in [14] is listed as “promising results”.

For `Nc1ncnc2c1nc(Cl)n2[C@@H]1O[C@H](COP(=O)(O)O)[C@@H](O)[C@H]1O` [8-Cl-AMP], the growth inhibition result with cells is “no appreciable growth inhibition”.
